In patent US11945798B2, “Substituted aminopyridine compounds as EGFR inhibitors” (YUHAN CORPORATION, priority 2021, dated 2024) one finds IC50 data, which are given here for 14 compounds.

Assay [1] addresses EGFR wildtype (WT) (Homo sapiens, UniProt P00533). The experiment in a line: Biochemical EGFR kinase assay (Lance Ultra TR-FRET), wildtype. How it is done:
(§1) Biochemical EGFR kinase assays were conducted using Lance Ultra time-resolved fluorescence resonance energy transfer (TR-FRET) technology from Perkin-Elmer. Compounds of the invention were initially diluted to 20 mM in 100% DMSO for storage and made into kinase buffer solution to create a compound concentration ranging from 0.003 μM and 10 μM.
(§2) Each kinase reactions were incubated at room temperature for 1 hour and then stopped by the addition of 4 μL of stop solution (10 mM EDTA). The specific Europium-labeled-anti-phosphopeptide antibody (PerkinElmer, AD0069) diluted in LANCE detection buffer was then added to a final concentration of 2 nM. After 60 minutes incubation at room temperature the LANCE signal was measured on an EnVision Multilabel Reader (Perkin-Elmer). Excitation wavelength was set at 320 nm and emission monitored at 615 nm (donor) and 665 nm (acceptor). The IC50 values were determined using GraphPad prism software (GraphPad Software, Inc., San Diego, CA, USA).

Assay [2] concerns the target EGFR del19/C797S (Homo sapiens, UniProt P00533, C797S/DEL746-750). The experiment in a line: Biochemical EGFR kinase assay (Lance Ultra TR-FRET), del19/C797S. How it is done:
as §1, §2
For orientation: In TR-FRET formats the signal depends on donor and acceptor labels being close together.

Assay [3] concerns the target EGFR L858R/C797S (Homo sapiens, UniProt P00533, C797S/L858R). Put plainly: Biochemical EGFR kinase assay (Lance Ultra TR-FRET), L858R/C797S. How it is done:
as §1, §2

The target in assay [4] is EGFR L858R/T790M/C797S (Homo sapiens, UniProt P00533, C797S/L858R/T790M). The experiment in a line: Biochemical EGFR kinase assay (Lance Ultra TR-FRET), L858R/T790M/C797S. As to the method: as §1, §2
Assay [5] deals with EGFR del19/T790M/C797S (Homo sapiens, UniProt P00533, C797S/DEL746-750/T790M). Put plainly: Biochemical EGFR kinase assay (Lance Ultra TR-FRET), del19/T790M/C797S. How it is done: as §1, §2
The mark [6] stands for this setting: IC50 WT (nM) 100 μM ATP, 100 μM ATP.
Where [7] appears, read: Km ATP, read-out: IC50 WT (nM) Km ATP.
The mark [8] stands for this setting: IC50 del19/C797S (nM) 100 μM ATP, 100 μM ATP.
Setting [9] is: Km ATP, read-out: IC50 del19/C797S (nM) Km ATP.
The mark [10] stands for this setting: IC50 L858R/C797S (nM) 100 μM ATP, 100 μM ATP.
Where [11] appears, read: Km ATP, read-out: IC50 L858R/C797S (nM) Km ATP.
Where [12] appears, read: IC50 L858R/T790M/C797S (nM) 100 μM ATP, 100 μM ATP.
Setting [13] is: Km ATP, read-out: IC50 L858R/T790M/C797S (nM) Km ATP.
Setting [14] is: read-out: IC50 WT (nM) 100 μM ATP, 100 μM ATP.
[15] abbreviates: read-out: IC50 del19/C797S (nM) 100 μM ATP, 100 μM ATP.
Where [16] appears, read: read-out: IC50 L858R/C797S (nM) 100 μM ATP, 100 μM ATP.
The mark [17] stands for this setting: Km ATP, read-out: IC50 del19/T790M/C797S (nM) Km ATP.

Where two headings read alike, the source gives them in different places. Bounds are passed on as bounds.

With `O=C(c1cnc(Nc2ccnc(-c3cnn(S(=O)(=O)C4CC4)c3)n2)cc1N[C@H]1CC[C@@H](NCCF)CC1)C(F)F` [Example 51, 1-(6-((2-(1-(Cyclopropylsulfonyl)-1H-pyrazol-4-yl)pyrimidin-4-yl)amino)-4-(((1s,4s)-4-((2-fluoroethyl)amino)cyclohexyl)amino)pyridin-3-yl)-2,2-difluoroethan-1-one], the IC50 is more than 10000 nM in assay [1] (setting [6]); 1240 nM in assay [1] (setting [7]); 18.9 nM in assay [2] (setting [8]); 45.4 nM in assay [2] (setting [9]); 407 nM in assay [3] (setting [10]); 47.1 nM in assay [3] (setting [11]). For the same compound, the IC50 in assay [4] (setting [12]) stood at 4.5 nM; in assay [4] (setting [13]), 1.1 nM.

For the compound “Cyclopropyl(6-((2-(1-(cyclopropylsulfonyl)-1H-pyrazol-4-yl)pyrimidin-4-yl)amino)-4-((4-((4-methylpiperazin-1-yl)amino)cyclohexyl)amino)pyridin-3-yl)methanone [Example 54]”, the IC50 in assay [1] (setting [14]) is more than 10000 nM; in assay [2] (setting [15]), 66.1 nM; in assay [3] (setting [16]), 33.8 nM.

For the compound `O=C(c1cnc(Nc2ccnc(-c3cnn(S(=O)(=O)C4CC4)c3)n2)cc1N[C@H]1CC[C@H](O)C1)C1CC1` [Example 24, Cyclopropyl(6-((2-(1-(cyclopropylsulfonyl)-1H-pyrazol-4-yl)pyrimidin-4-yl)amino)-4-(((1S,3S)-3-hydroxycyclopentyl)amino)pyridin-3-yl)methanone], the IC50 in assay [1] (setting [6]) was more than 10000 nM; in assay [2] (setting [8]) it was 70.9 nM; in assay [3] (setting [10]), 79.1 nM; in assay [4] (setting [12]), 4.4 nM.

As to `O=C(c1cnc(Nc2ccnc(-c3cnn(S(=O)(=O)C4CC4)c3)n2)cc1NCCC1CCOC1)C1CC1` (stereo not shown) [Example 6, Cyclopropyl(6-((2-(1-(cyclopropylsulfonyl)-1H-pyrazol-4-yl)pyrimidin-4-yl)amino)-4-((2-(tetrahydrofuran-3-yl)ethyl)amino)pyridin-3-yl)methanone], the IC50 in assay [1] (setting [7]) was found to be 890 nM; in assay [2] (setting [9]) it was 78 nM; in assay [5] (setting [17]), 0.6 nM; in assay [4] (setting [13]) it was 4.5 nM.

On to `CN(C)CCNc1cc(Nc2ccnc(-c3cnn(S(=O)(=O)C4CC4)c3)n2)ncc1C(=O)C1CC1` [Example 14, Cyclopropyl(6-((2-(1-(cyclopropylsulfonyl)-1H-pyrazol-4-yl)pyrimidin-4-yl)amino)-4-((2-(dimethylamino)ethyl)amino)pyridin-3-yl)methanone], for which the IC50 worked out at 3400 nM in assay [1] (setting [7]), 459 nM in assay [2] (setting [9]), 4.7 nM in assay [5] (setting [17]) and 31.9 nM in assay [4] (setting [13]).

Take `O=C(c1cnc(Nc2ccnc(-c3cnn(S(=O)(=O)C4CC4)c3)n2)cc1NCCF)C1CC1` [Example 3, Cyclopropyl(6-((2-(1-(cyclopropylsulfonyl)-1H-pyrazol-4-yl)pyrimidin-4-yl)amino)-4-((2-fluoroethyl)amino)pyridin-3-yl)methanone]: the IC50 in assay [1] (setting [7]) turned out to be 4200 nM; in assay [2] (setting [9]), 232 nM; in assay [5] (setting [17]), 0.9 nM; in assay [4] (setting [13]), 5.4 nM.

Turning to `CC(=O)c1cnc(Nc2ccnc(-c3cnn(S(=O)(=O)C4CC4)c3)n2)cc1OC[C@H]1CC[C@H](CN(C)C)CC1` [Example 65, 1-(6-((2-(1-(Cyclopropylsulfonyl)-1H-pyrazol-4-yl)pyrimidin-4-yl)amino)-4-(((1r,4r)-4-((dimethylamino)methyl)cyclohexyl)methoxy)pyridin-3-yl)ethan-1-one], the IC50 was found to be 389 nM in assay [1] (setting [7]), 52.5 nM in assay [2] (setting [9]), 0.7 nM in assay [5] (setting [17]) and 5.8 nM in assay [4] (setting [13]).

As to “6-((2-(1-(Cyclopropylsulfonyl)-1H-pyrazol-4-yl)pyrimidin-4-yl)amino)-N-(2-fluoroethyl)-4-(((1R,3S)-3-(hydroxymethyl)cyclopentyl)amino)nicotinamide [Example 75]”, the IC50 in assay [1] (setting [14]) is more than 10000 nM; in assay [2] (setting [15]), 14.5 nM; in assay [5] (read-out: IC50 del19/T790M/C797S (nM) 100 μM ATP, 100 μM ATP), 0.7 nM; in assay [3] (setting [16]), 30.5 nM.

For the compound `O=C(c1cnc(Nc2ccnc(-c3cnn(S(=O)(=O)C4CC4)c3)n2)cc1NCCCCF)C1CC1` [Example 4, Cyclopropyl(6-((2-(1-(cyclopropylsulfonyl)-1H-pyrazol-4-yl)pyrimidin-4-yl)amino)-4-((4-fluorobutyl)amino)pyridin-3-yl)methanone], the IC50 in assay [1] (setting [7]) was found to be 2400 nM; in assay [2] (setting [9]), 83.6 nM; in assay [5] (setting [17]), 1.3 nM; in assay [4] (setting [13]) it was 11.6 nM.

With `CC(C)Oc1cc(Nc2ccnc(-c3cnn(S(=O)(=O)C4CC4)c3)n2)ncc1NC(=O)C1CC1` [Example 42, N-(6-((2-(1-(Cyclopropylsulfonyl)-1H-pyrazol-4-yl)pyrimidin-4-yl)amino)-4-isopropoxypyridin-3-yl)cyclopropanecarboxamide], the IC50 in assay [1] (setting [7]) was determined as 123 nM; in assay [2] (setting [9]), 213 nM; in assay [5] (setting [17]) it was 1 nM; in assay [4] (setting [13]), 10.5 nM.

For `O=C(c1cnc(Nc2ccnc(-c3cnn(S(=O)(=O)C4CC4)c3)n2)cc1NCC1CCCCO1)C1CC1` (stereo not shown) [Example 10, Cyclopropyl(6-((2-(1-(cyclopropylsulfonyl)-1H-pyrazol-4-yl)pyrimidin-4-yl)amino)-4-(((tetrahydro-2H-pyran-2-yl)methyl)amino)pyridin-3-yl)methanone], the IC50 in assay [1] (setting [7]) was 1170 nM; in assay [2] (setting [9]), 553 nM; in assay [5] (setting [17]), 2.1 nM; in assay [4] (setting [13]) it was 13.7 nM.

With `CC(C)Nc1cc(Nc2ccnc(-c3cnn(S(=O)(=O)C4CC4)c3)n2)ncc1C1=CCCCO1` [Example 84, N^2-(2-(1-(Cyclopropylsulfonyl)-1H-pyrazol-4-yl)pyrimidin-4-yl)-5-(3,4-dihydro-2H-pyran-6-yl)-N^4-isopropylpyridine-2,4-diamine], the IC50 was more than 10000 nM in assay [1] (setting [6]); 107 nM in assay [2] (setting [8]); 4.5 nM in assay [5] (IC50 del19/T790M/C797S (nM) 100 μM ATP, 100 μM ATP); 523 nM in assay [3] (setting [10]).

For `CC(C)C(=O)NC[C@H]1CC[C@H](CNc2cc(Nc3ccnc(-c4cnn(S(=O)(=O)C5CC5)c4)n3)ncc2C(=O)C2CC2)CC1` [Example 72, N-(((1r,4r)-4-(((5-(Cyclopropanecarbonyl)-2-((2-(1-(cyclopropylsulfonyl)-1H-pyrazol-4-yl)pyrimidin-4-yl)amino)pyridin-4-yl)amino)methyl)cyclohexyl)methyl)isobutyramide], the IC50 was 2040 nM in assay [1] (setting [7]), 7.2 nM in assay [2] (setting [9]), 1 nM in assay [5] (setting [17]) and 45.8 nM in assay [3] (setting [11]).

For the compound `CN(C)C[C@H]1CC[C@H](CNc2cc(Nc3ccnc(-c4cnn(CC5CC5)c4)n3)ncc2C(=O)C2CC2)CC1` [Example 61, Cyclopropyl(6-((2-(1-(cyclopropylmethyl)-1H-pyrazol-4-yl)pyrimidin-4-yl)amino)-4-((((1r,4r)-4-((dimethylamino)methyl)cyclohexyl)methyl)amino)pyridin-3-yl)methanone], the IC50 in assay [1] (setting [7]) amounted to 415 nM; in assay [5] (setting [17]) it was 5.7 nM; in assay [3] (setting [11]), 123 nM.
